Experimental data published in PubChem BioAssay AID1963851 (Molecular Pharmacology Branch, DTP, NCI, 2024).

Tested on: 188146-221-R-J1-PDC complex spheroid viability
Assay: Anticancer human tumor 188146-221-R-J1-PDC patient-derived colon adenocarcinoma cell line growth inhibition [POLQ]
Conditions: for IC50: curve of first compound; for viability, T/C: stronger effect = lower value
Method in brief: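 Growth inhibition in 3D: complex spheroids (tumor PDC, HUVEC, MSC) treated with POLQ inhibitor combinations; where Cmax unknown, highest tested concentration 10 microM, except SN-38 at 1 microM.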

[1] = second compound 0.0316 µM, first compound 0.0316 µM
[2] = second compound 0.0316 µM, first compound 0.1 µM
[3] = second compound 0.0316 µM, first compound 0.316 µM
[4] = second compound 0.0316 µM, first compound 1 µM
[5] = second compound 0.0316 µM, first compound 3.16 µM
[6] = second compound 0.0316 µM, first compound 10 µM
[7] = second compound 0.1 µM, first compound 0.0316 µM
[8] = second compound 0.1 µM, first compound 0.1 µM
[9] = second compound 0.1 µM, first compound 0.316 µM
[10] = second compound 0.1 µM, first compound 1 µM
[11] = second compound 0.1 µM, first compound 3.16 µM
[12] = second compound 0.1 µM, first compound 10 µM
[13] = second compound 0.316 µM, first compound 0.0316 µM
[14] = second compound 0.316 µM, first compound 0.1 µM
[15] = second compound 0.316 µM, first compound 0.316 µM
[16] = second compound 0.316 µM, first compound 1 µM
[17] = second compound 0.316 µM, first compound 3.16 µM
[18] = second compound 0.316 µM, first compound 10 µM
[19] = second compound 1 µM, first compound 0.0316 µM
[20] = second compound 1 µM, first compound 0.1 µM
[21] = second compound 1 µM, first compound 0.316 µM
[22] = second compound 1 µM, first compound 1 µM
[23] = second compound 1 µM, first compound 3.16 µM
[24] = second compound 1 µM, first compound 10 µM
[25] = second compound 3.16 µM, first compound 0.0316 µM
[26] = second compound 3.16 µM, first compound 0.1 µM
[27] = second compound 3.16 µM, first compound 0.316 µM
[28] = second compound 3.16 µM, first compound 1 µM
[29] = second compound 3.16 µM, first compound 3.16 µM
[30] = second compound 3.16 µM, first compound 10 µM
[31] = second compound 10 µM, first compound 0.0316 µM
[32] = second compound 10 µM, first compound 0.1 µM
[33] = second compound 10 µM, first compound 0.316 µM
[34] = second compound 10 µM, first compound 1 µM
[35] = second compound 10 µM, first compound 3.16 µM
[36] = second compound 10 µM, first compound 10 µM
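Further: spheroids exposed to compounds for seven days.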
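Wherever viability, T/C is given: 100% = DMSO vehicle control viability.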

C=CC(=O)N1CCN(c2nc(=O)n(-c3c(C)ccnc3C(C)C)c3nc(-c4c(O)cccc4F)c(F)cc23)C(C)C1 (stereo not given) + Nc1ccc(C#CCN(C(=O)Cc2ncc(C(F)(F)F)cc2C(F)(F)F)c2ccc(F)cc2)nn1
IC50 (second compound 0.0316 µM): > 10 µM | IC50 (second compound 0.1 µM): > 10 µM | IC50 (second compound 0.316 µM): > 10 µM | IC50 (second compound 1 µM): > 10 µM | IC50 (second compound 3.16 µM): > 10 µM | IC50 (second compound 10 µM): > 10 µM | viability, T/C [1]: 104% | viability, T/C [2]: 107% | viability, T/C [3]: 103% | viability, T/C [4]: 96.5% | viability, T/C [5]: 104% | viability, T/C [6]: 84.9% | viability, T/C [7]: 95.7% | viability, T/C [8]: 108% | viability, T/C [9]: 101% | viability, T/C [10]: 102% | viability, T/C [11]: 120% | viability, T/C [12]: 85.6% | viability, T/C [13]: 104% | viability, T/C [14]: 99.2% | viability, T/C [15]: 109% | viability, T/C [16]: 82.2% | viability, T/C [17]: 104% | viability, T/C [18]: 78% | viability, T/C [19]: 108% | viability, T/C [20]: 91.6% | viability, T/C [21]: 92.6% | viability, T/C [22]: 113% | viability, T/C [23]: 97.4% | viability, T/C [24]: 103% | viability, T/C [25]: 96.8% | viability, T/C [26]: 108% | viability, T/C [27]: 92.4% | viability, T/C [28]: 104% | viability, T/C [29]: 97.5% | viability, T/C [30]: 101% | viability, T/C [31]: 101% | viability, T/C [32]: 104% | viability, T/C [33]: 107% | viability, T/C [34]: 107% | viability, T/C [35]: 98.1% | viability, T/C [36]: 96.4%

CC(C)n1c(=O)n(C)c2cnc3cc(F)c(-c4ccc(OCCCN5CCCCC5)nc4)cc3c21 + Nc1ccc(C#CCN(C(=O)Cc2ncc(C(F)(F)F)cc2C(F)(F)F)c2ccc(F)cc2)nn1
IC50 (second compound 0.0316 µM): > 10 µM | IC50 (second compound 0.1 µM): > 10 µM | IC50 (second compound 0.316 µM): > 10 µM | IC50 (second compound 1 µM): > 10 µM | IC50 (second compound 3.16 µM): > 10 µM | IC50 (second compound 10 µM): > 10 µM | viability, T/C [1]: 87.3% | viability, T/C [2]: 106% | viability, T/C [3]: 95.4% | viability, T/C [4]: 97.9% | viability, T/C [5]: 83.6% | viability, T/C [6]: 80.7% | viability, T/C [7]: 101% | viability, T/C [8]: 107% | viability, T/C [9]: 94.9% | viability, T/C [10]: 92.2% | viability, T/C [11]: 92.6% | viability, T/C [12]: 83.7% | viability, T/C [13]: 94.8% | viability, T/C [14]: 94.7% | viability, T/C [15]: 89.4% | viability, T/C [16]: 96.8% | viability, T/C [17]: 103% | viability, T/C [18]: 80.9% | viability, T/C [19]: 104% | viability, T/C [20]: 101% | viability, T/C [21]: 88% | viability, T/C [22]: 88.9% | viability, T/C [23]: 93.7% | viability, T/C [24]: 86.9% | viability, T/C [25]: 99% | viability, T/C [26]: 98.3% | viability, T/C [27]: 99.5% | viability, T/C [28]: 84.2% | viability, T/C [29]: 95.3% | viability, T/C [30]: 87.8% | viability, T/C [31]: 105% | viability, T/C [32]: 95.5% | viability, T/C [33]: 98.4% | viability, T/C [34]: 96.6% | viability, T/C [35]: 97.9% | viability, T/C [36]: 84.1%

CC1COCCN1c1cc(-c2ccnn2C)c2ccnc(-c3ccn[nH]3)c2n1 (stereo not given) + Nc1ccc(C#CCN(C(=O)Cc2ncc(C(F)(F)F)cc2C(F)(F)F)c2ccc(F)cc2)nn1
IC50 (second compound 0.0316 µM): 0.177 µM | IC50 (second compound 0.1 µM): 0.228 µM | IC50 (second compound 0.316 µM): 0.173 µM | IC50 (second compound 1 µM): 0.142 µM | IC50 (second compound 3.16 µM): 0.162 µM | IC50 (second compound 10 µM): 0.176 µM | viability, T/C [1]: 84.9% | viability, T/C [2]: 63.2% | viability, T/C [3]: 36.3% | viability, T/C [4]: 22.6% | viability, T/C [5]: 16.3% | viability, T/C [6]: 14.5% | viability, T/C [7]: 86.4% | viability, T/C [8]: 72.8% | viability, T/C [9]: 40.3% | viability, T/C [10]: 22.3% | viability, T/C [11]: 17.2% | viability, T/C [12]: 12.9% | viability, T/C [13]: 80% | viability, T/C [14]: 61.1% | viability, T/C [15]: 38.3% | viability, T/C [16]: 20% | viability, T/C [17]: 14.1% | viability, T/C [18]: 15.8% | viability, T/C [19]: 96.3% | viability, T/C [20]: 54% | viability, T/C [21]: 40.2% | viability, T/C [22]: 19.2% | viability, T/C [23]: 16.2% | viability, T/C [24]: 15% | viability, T/C [25]: 89.7% | viability, T/C [26]: 56.7% | viability, T/C [27]: 42.6% | viability, T/C [28]: 19.6% | viability, T/C [29]: 17.4% | viability, T/C [30]: 14.2% | viability, T/C [31]: 77.3% | viability, T/C [32]: 66.1% | viability, T/C [33]: 33.2% | viability, T/C [34]: 19.8% | viability, T/C [35]: 18.6% | viability, T/C [36]: 14.7%

CC1COCCN1c1cc(C2(S(C)(=N)=O)CC2)nc(-c2ccnc3[nH]ccc23)n1 (stereo not given) + Nc1ccc(C#CCN(C(=O)Cc2ncc(C(F)(F)F)cc2C(F)(F)F)c2ccc(F)cc2)nn1
IC50 (second compound 0.0316 µM): 4.63 µM | IC50 (second compound 0.1 µM): 4.5 µM | IC50 (second compound 0.316 µM): 4.59 µM | IC50 (second compound 1 µM): 4.55 µM | IC50 (second compound 3.16 µM): 4.66 µM | IC50 (second compound 10 µM): 4.11 µM | viability, T/C [1]: 105% | viability, T/C [2]: 110% | viability, T/C [3]: 95.7% | viability, T/C [4]: 100% | viability, T/C [5]: 61.2% | viability, T/C [6]: 27.2% | viability, T/C [7]: 106% | viability, T/C [8]: 92.6% | viability, T/C [9]: 109% | viability, T/C [10]: 92.1% | viability, T/C [11]: 60.5% | viability, T/C [12]: 26.9% | viability, T/C [13]: 110% | viability, T/C [14]: 109% | viability, T/C [15]: 99.7% | viability, T/C [16]: 101% | viability, T/C [17]: 61.9% | viability, T/C [18]: 24.8% | viability, T/C [19]: 95.1% | viability, T/C [20]: 89.7% | viability, T/C [21]: 111% | viability, T/C [22]: 89.2% | viability, T/C [23]: 63.3% | viability, T/C [24]: 22.2% | viability, T/C [25]: 103% | viability, T/C [26]: 109% | viability, T/C [27]: 93.3% | viability, T/C [28]: 82.7% | viability, T/C [29]: 65.3% | viability, T/C [30]: 24.1% | viability, T/C [31]: 107% | viability, T/C [32]: 99.6% | viability, T/C [33]: 101% | viability, T/C [34]: 90% | viability, T/C [35]: 58.1% | viability, T/C [36]: 22.1%

COc1ccc([C@@H](O)c2cc(-c3ncnc4cc(N5CCOCC5)ccc34)c(F)cc2Cl)nn1 + Nc1ccc(C#CCN(C(=O)Cc2ncc(C(F)(F)F)cc2C(F)(F)F)c2ccc(F)cc2)nn1
IC50 (second compound 0.0316 µM): 6.82 µM | IC50 (second compound 0.1 µM): 6.9 µM | IC50 (second compound 0.316 µM): > 10 µM | IC50 (second compound 1 µM): 8.15 µM | IC50 (second compound 3.16 µM): 7.39 µM | IC50 (second compound 10 µM): 6.86 µM | viability, T/C [1]: 103% | viability, T/C [2]: 118% | viability, T/C [3]: 96.6% | viability, T/C [4]: 87.6% | viability, T/C [5]: 65.1% | viability, T/C [6]: 42.5% | viability, T/C [7]: 109% | viability, T/C [8]: 91.3% | viability, T/C [9]: 91.1% | viability, T/C [10]: 83.9% | viability, T/C [11]: 74.1% | viability, T/C [12]: 39% | viability, T/C [13]: 122% | viability, T/C [14]: 95.3% | viability, T/C [15]: 95.5% | viability, T/C [16]: 83.6% | viability, T/C [17]: 82.5% | viability, T/C [18]: 44.5% | viability, T/C [19]: 103% | viability, T/C [20]: 96.8% | viability, T/C [21]: 91.9% | viability, T/C [22]: 87.2% | viability, T/C [23]: 69.8% | viability, T/C [24]: 45.3% | viability, T/C [25]: 104% | viability, T/C [26]: 102% | viability, T/C [27]: 110% | viability, T/C [28]: 97.6% | viability, T/C [29]: 81.7% | viability, T/C [30]: 38.8% | viability, T/C [31]: 102% | viability, T/C [32]: 104% | viability, T/C [33]: 103% | viability, T/C [34]: 91.6% | viability, T/C [35]: 63.9% | viability, T/C [36]: 43.3%
